Reference: ChEMBL document CHEMBL1201862, “PubChem BioAssay data set” (2004)
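Tested at 5 concentrations; 48 h exposure; 96-well plates; endpoints linearly interpolated, else capped at highest concentration. Abbreviation: GI50, concentration required for 50% inhibition of growth.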 The source made the active and inactive calls. No stated cut-off is given here; in the data, active = GI50 up to about 1.1 µM and inactive = higher.

Tests used:
Assay in all cases: DTP human tumour cell line panel, 48 h
[1] = test system: SK-MEL-28
[2] = test system: HCC 2998
[3] = test system: A549
[4] = test system: HOP-62
[5] = test system: HT-29
[6] = test system: MDA-N
[7] = test system: NCI-H226
[8] = test system: NCI-H460
[9] = test system: COLO 205
[10] = test system: RXF 393
[11] = test system: TK-10
[12] = test system: SF-539
[13] = test system: SR
[14] = test system: HL-60
[15] = test system: KM12
[16] = test system: MDA-MB-435
[17] = test system: LOX IMVI
[18] = test system: U-251
[19] = test system: HCT-15
[20] = test system: OVCAR-4

O=C1NC2c3c(I)sc(I)c3C(O)C2O1 (stereo not given)
GI50 [1]: > 100 µM (inactive) | GI50 [2]: > 100 µM (inactive) | GI50 [3]: > 100 µM (inactive) | GI50 [4]: > 100 µM (inactive) | GI50 [5]: > 100 µM (inactive) | GI50 [6]: > 100 µM (inactive) | GI50 [7]: > 100 µM (inactive) | GI50 [8]: > 100 µM (inactive) | GI50 [9]: > 100 µM (inactive) | GI50 [10]: > 100 µM (inactive) | GI50 [11]: > 100 µM (inactive) | GI50 [12]: > 100 µM (inactive) | GI50 [13]: > 100 µM (inactive) | GI50 [14]: > 100 µM (inactive) | GI50 [15]: > 100 µM (inactive) | GI50 [16]: > 100 µM (inactive) | GI50 [17]: > 100 µM (inactive) | GI50 [18]: > 100 µM (inactive) | GI50 [19]: > 100 µM | GI50 [20]: > 100 µM (inactive)

CC(=O)/N=C1\C=C(NC(C)=O)C(=O)c2ccccc21
GI50 [1]: 3 µM (inactive) | GI50 [2]: 17.7 µM (inactive) | GI50 [3]: 4.62 µM (inactive) | GI50 [4]: 18.5 µM (inactive) | GI50 [5]: 2.58 µM (inactive) | GI50 [6]: 1.9 µM (inactive) | GI50 [7]: 7.96 µM (inactive) | GI50 [8]: 5.08 µM (inactive) | GI50 [9]: 1.94 µM (inactive) | GI50 [10]: 2.21 µM (inactive) | GI50 [11]: 5.64 µM (inactive) | GI50 [12]: 2.37 µM (inactive) | GI50 [13]: 1.52 µM (inactive) | GI50 [14]: 1.85 µM (inactive) | GI50 [15]: 5.41 µM (inactive) | GI50 [16]: 1.82 µM (inactive) | GI50 [17]: 1.68 µM (inactive) | GI50 [18]: 2.99 µM (inactive) | GI50 [19]: 1.89 µM | GI50 [20]: 1.66 µM (inactive)

C[C@]12CC[C@H]3[C@@H](CCC4=CC(=O)CC[C@@]43C)[C@]1(O)CC[C@]2(O)C(=O)CO
GI50 [1]: > 100 µM (inactive) | GI50 [2]: > 100 µM (inactive) | GI50 [3]: > 100 µM (inactive) | GI50 [4]: > 100 µM (inactive) | GI50 [5]: > 100 µM (inactive) | GI50 [6]: > 100 µM (inactive) | GI50 [7]: > 100 µM (inactive) | GI50 [8]: > 100 µM (inactive) | GI50 [9]: > 100 µM (inactive) | GI50 [10]: > 100 µM (inactive) | GI50 [11]: > 100 µM (inactive) | GI50 [12]: > 100 µM (inactive) | GI50 [13]: > 100 µM (inactive) | GI50 [14]: > 100 µM (inactive) | GI50 [15]: > 100 µM (inactive) | GI50 [16]: > 100 µM (inactive) | GI50 [17]: > 100 µM (inactive) | GI50 [18]: > 100 µM (inactive) | GI50 [19]: > 100 µM | GI50 [20]: > 100 µM (inactive)

FC(F)(F)c1ccc2c(c1)nc(Cc1ccccc1)n2C[C@@H]1CCCN2CCCCC12 (stereo not given in full)
GI50 [1]: 16.2 µM (inactive) | GI50 [2]: 4.68 µM (inactive) | GI50 [3]: 15 µM (inactive) | GI50 [4]: 14.6 µM (inactive) | GI50 [5]: 12 µM (inactive) | GI50 [6]: 12.7 µM (inactive) | GI50 [7]: 19.2 µM (inactive) | GI50 [8]: 15.2 µM (inactive) | GI50 [9]: 14.1 µM (inactive) | GI50 [10]: 8.55 µM (inactive) | GI50 [11]: 17.1 µM (inactive) | GI50 [12]: 18.8 µM (inactive) | GI50 [13]: 10.1 µM (inactive) | GI50 [14]: 1.59 µM (inactive) | GI50 [15]: 15.8 µM (inactive) | GI50 [16]: 14.9 µM (inactive) | GI50 [17]: 15.1 µM (inactive) | GI50 [18]: 15.7 µM (inactive) | GI50 [19]: 14.6 µM | GI50 [20]: 15.2 µM (inactive)

O=[N+]([O-])c1ccc(-c2cc(O)c3nc4ccccc4n3c2)cc1
GI50 [1]: > 100 µM (inactive) | GI50 [2]: > 100 µM (inactive) | GI50 [3]: > 100 µM (inactive) | GI50 [4]: 28.6 µM (inactive) | GI50 [5]: > 100 µM (inactive) | GI50 [6]: > 100 µM (inactive) | GI50 [7]: > 100 µM (inactive) | GI50 [8]: > 100 µM (inactive) | GI50 [9]: > 100 µM (inactive) | GI50 [10]: > 100 µM (inactive) | GI50 [11]: > 100 µM (inactive) | GI50 [12]: > 100 µM (inactive) | GI50 [13]: > 100 µM (inactive) | GI50 [14]: > 100 µM (inactive) | GI50 [15]: > 100 µM (inactive) | GI50 [16]: > 31.6 µM (inactive) | GI50 [17]: > 100 µM (inactive) | GI50 [18]: 28.1 µM (inactive) | GI50 [19]: > 100 µM | GI50 [20]: > 100 µM (inactive)

CN(c1c(Cl)cccc1Cl)S(=O)(=O)c1ccccc1[N+](=O)[O-]
GI50 [1]: > 100 µM (inactive) | GI50 [2]: > 100 µM (inactive) | GI50 [3]: > 100 µM (inactive) | GI50 [4]: > 100 µM (inactive) | GI50 [5]: > 100 µM (inactive) | GI50 [6]: > 100 µM (inactive) | GI50 [7]: > 100 µM (inactive) | GI50 [8]: > 100 µM (inactive) | GI50 [9]: > 100 µM (inactive) | GI50 [10]: > 100 µM (inactive) | GI50 [11]: > 100 µM (inactive) | GI50 [12]: > 100 µM (inactive) | GI50 [13]: > 100 µM (inactive) | GI50 [14]: > 10 µM (inactive) | GI50 [15]: > 100 µM (inactive) | GI50 [16]: > 100 µM (inactive) | GI50 [17]: > 100 µM (inactive) | GI50 [18]: > 100 µM (inactive) | GI50 [19]: > 100 µM | GI50 [20]: > 100 µM (inactive)

c1ccc2c(c1)CCc1[nH]c3c(c1-2)-c1ccccc1CC3
GI50 [1]: > 100 µM (inactive) | GI50 [2]: 36 µM (inactive) | GI50 [3]: 77.1 µM (inactive) | GI50 [4]: 15.1 µM (inactive) | GI50 [5]: 32.3 µM (inactive) | GI50 [6]: 94 µM (inactive) | GI50 [7]: 61.8 µM (inactive) | GI50 [8]: 39.9 µM (inactive) | GI50 [9]: > 100 µM (inactive) | GI50 [10]: 45.3 µM (inactive) | GI50 [11]: 98.6 µM (inactive) | GI50 [12]: > 100 µM (inactive) | GI50 [13]: 38.7 µM (inactive) | GI50 [14]: 27.9 µM (inactive) | GI50 [15]: 48.2 µM (inactive) | GI50 [16]: 74.6 µM (inactive) | GI50 [17]: 42.6 µM (inactive) | GI50 [18]: > 100 µM (inactive) | GI50 [19]: 48.1 µM | GI50 [20]: 61.5 µM (inactive)
